Assay results as given in DBAASP.
Converted amounts (≈) assume the structure as drawn. “And” between values parts separate entries of the source, which are not always exact repeats. Equal values may be shown once. Values belong to the compound of their own block, whether it stands above or below them.

Tests used:
Experiment in all cases: ≥ marks a high value that may be exact or a test limit, other limits are often not marked, values filed in µg/mL are converted to µM
[1] = test system: Acinetobacter baumannii ATCC 19606
[2] = test system: Aspergillus fumigatus ATCC 26430
[3] = test system: Enterococcus faecalis ATCC 19433
[4] = test system: Escherichia coli ATCC 25922
[5] = test system: Staphylococcus aureus II ATCC 6538P
[6] = test system: Pseudomonas aeruginosa ATCC 27853
Escherichia coli D21 = test system: Escherichia coli D21
[7] = test system: Staphylococcus aureus DBFIQ S21
[8] = test system: Listeria monocytogenes DBFIQ LM3
[9] = test system: Staphylococcus aureus BCRC 10780
[10] = test system: Streptococcus pneumoniae BCRC 10794
[11] = test system: Pseudomonas syringae pv. syringae DSM 10604
[12] = test system: Staphylococcus aureus 90857
[13] = test system: Xanthomonas vesicatoria DSM 50861
[14] = test system: Pectobacterium carotovorum subsp. carotovorum DSM 30168
[15] = test system: Pseudomonas syringae pv. tomato DC3000
[16] = test system: Pseudomonas corrugata DSM 7228
[17] = test system: Clavibacter michiganensis subsp. michiganensis DSM 46294
[18] = test system: Klebsiella pneumoniae ATCC 13883
[19] = test system: Staphylococcus aureus ATCC 25923
Escherichia coli D31 = test system: Escherichia coli D31
[20] = test system: Candida albicans ATCC 14053
[21] = test system: Staphylococcus epidermidis PIA 8400
[22] = test system: Staphylococcus aureus ATCC 29213
[23] = test system: Enterococcus faecalis ATCC 29212
[24] = test system: Escherichia coli ATCC 43827
[25] = test system: Escherichia coli ATCC 11775
Candida albicans 38U = test system: Candida albicans 38U
[26] = test system: Trichophyton mentagrophytes
Candida albicans 01U = test system: Candida albicans 01U
Candida parapsilosis = test system: Candida parapsilosis
[27] = test system: Cryptococcus neoformans L26
Trichophyton rubrum = test system: Trichophyton rubrum
[28] = test system: Cryptococcus neoformans L30
Bacillus cereus AS1.126 = test system: Bacillus cereus AS1.126
[29] = test system: Staphylococcus aureus AS1.72
[30] = test system: Pseudomonas aeruginosa CGMCC 1.860
[31] = test system: Klebsiella aerogenes CGMCC 1.876
[32] = test system: Enterococcus faecium CGMCC 1.2334
[33] = test system: Lactococcus lactis AS1.1690
[34] = test system: Enterobacter cloacae CGMCC 1.58
Escherichia coli AS1.349 = test system: Escherichia coli AS1.349
[35] = test system: Enterococcus faecalis CGMCC 1.595
[36] = test system: Klebsiella pneumoniae subsp. pneumoniae CGMCC 1.176

Compound: CC(C)C[C@H](NC(=O)[C@H](CCCN=C(N)N)NC(=O)[C@H](CCCN=C(N)N)NC(=O)[C@H](CC(C)C)NC(=O)[C@H](CC(C)C)NC(=O)[C@H](CCCN=C(N)N)NC(=O)[C@H](CCCN=C(N)N)NC(=O)[C@H](CC(C)C)NC(=O)[C@H](CC(C)C)NC(=O)[C@H](CCCN=C(N)N)NC(=O)[C@H](CCCN=C(N)N)NC(=O)[C@H](CC(C)C)NC(=O)[C@H](C)NC(=O)[C@H](CC(=O)O)NC(=O)[C@@H](N)CC(=O)O)C(=O)O [DDALRRLLRRLLRRL]
- MIC [1]: 75 µM and 100 µM
- MIC [2]: 6.2 µM and 3.1 µM
- MIC [3]: ≥ 100 µM
- MIC [4]: 100 µM (≈ 194 µg/mL)
- MIC [5]: ≥ 50 µM and 31 µM
- MIC [6]: 50 µM (≈ 96.8 µg/mL)
- MIC (Escherichia coli D21): ≥ 50 µM

Compound: CC[C@H](C)[C@@H]1NC(=O)CNC(=O)[C@H](CCCCN)NC(=O)[C@H](CC(N)=O)NC(=O)[C@H](CCCNC(=N)N)NC(=O)[C@H](C(C)C)NC(=O)[C@@H](NC(=O)[C@H](CO)NC(=O)[C@@H](NC(=O)[C@@H]2CCCN2C(=O)[C@@H](N)CC(N)=O)C(C)C)CSSC[C@@H]2NC(=O)[C@H](CCCCN)NC(=O)[C@H](C(C)C)NC(=O)[C@H](C)NC(=O)[C@H](CCCNC(=N)N)NC(=O)CNC(=O)[C@H](C(C)C)NC(=O)[C@@H]3CSSC[C@H](NC1=O)C(=O)N[C@@H](C(C)C)C(=O)N1CCC[C@H]1C(=O)N[C@@H]([C@@H](C)CC)C(=O)N[C@@H](CCCNC(=N)N)C(=O)N[C@@H](CSSC[C@@H](C(=O)N[C@@H](CCCNC(=N)N)C(=O)N[C@@H](CCCCN)C(=O)N[C@@H](CCCCN)C(=O)O)NC2=O)C(=O)N1CCC[C@H]1C(=O)NCC(=O)N[C@@H](CO)C(=O)N[C@@H](CCSC)C(=O)N[C@@H](CCCCN)C(=O)N[C@@H](CCC(N)=O)C(=O)N[C@@H]([C@@H](C)CC)C(=O)NCC(=O)N[C@@H]([C@@H](C)O)C(=O)N3 [NPVSCVRNKGICVPIRCPGSMKQIGTCVGRAVKCCRKK]
- MIC [18]: 4.23 µM (≈ 17.3 µg/mL)
- MIC [19]: 8.64 µM (≈ 35.3 µg/mL)
- MIC (Escherichia coli D31): 4.23 µM (≈ 17.3 µg/mL)
- MIC [20]: 2.07 µM (≈ 8.47 µg/mL)
- MIC [6]: 8.64 µM (≈ 35.3 µg/mL)

Compound: NC(=O)CC[C@H](NC(=O)[C@H](Cc1c[nH]c2ccccc12)NC(=O)[C@H](CCCN=C(N)N)NC(=O)[C@@H](N)CCCN=C(N)N)C(=O)N[C@@H](Cc1c[nH]c2ccccc12)C(=O)N[C@@H](CCCN=C(N)N)C(=O)O [RRWQWR]
- MIC [24]: 5 µM (≈ 4.94 µg/mL)
- MIC [25]: 22 µM (≈ 21.7 µg/mL)
- MIC [4]: 22 µM (≈ 21.7 µg/mL)
- MIC [23]: 44 µM (≈ 43.4 µg/mL)

Compound: NC(N)=NCCC[C@H](NC(=O)[C@H](Cc1cnc[nH]1)NC(=O)[C@H](Cc1c[nH]c2ccccc12)NC(=O)[C@H](Cc1ccccc1)NC(=O)[C@H](CCCN=C(N)N)NC(=O)[C@H](CCCN=C(N)N)NC(=O)[C@@H](N)Cc1c[nH]c2ccccc12)C(=O)O [WRRFWHR]
- MIC (Bacillus cereus AS1.126): 25 µM (≈ 28.6 µg/mL)
- MIC [29]: 25 µM (≈ 28.6 µg/mL)
- MIC [30]: 25 µM (≈ 28.6 µg/mL)
- MIC [31]: ≥ 100 µM
- MIC [32]: 25 µM (≈ 28.6 µg/mL)
- MIC [33]: ≥ 50 µM
- MIC [34]: ≥ 100 µM
- MIC (Escherichia coli AS1.349): 25 µM (≈ 28.6 µg/mL)
- MIC [35]: ≥ 50 µM
- MIC [36]: ≥ 100 µM

More lines, now with the values ahead:

- MIC [7]: 8.9 µM (≈ 16 µg/mL)
- MIC [8]: 17.8 µM (≈ 32.1 µg/mL)
Compound: CC[C@H](C)[C@H](NC(=O)[C@H](C)NC(=O)[C@@H](NC(=O)[C@H](C)NC(=O)CN)[C@@H](C)O)C(=O)N[C@@H](CCCCN)C(=O)N[C@@H](CCC(N)=O)C(=O)N[C@H](C(=O)N[C@@H](CCCCN)C(=O)N[C@@H](CCCCN)C(=O)N[C@@H](CC(C)C)C(=O)N[C@@H](Cc1ccccc1)C(=O)N[C@@H](CCCCN)C(=O)N[C@@H](CCCCN)C(=O)N[C@@H](CCCCN)C(=O)NCC(=O)NCC(N)=O)C(C)C [GATAIKQVKKLFKKKGG]

- MIC [9]: ≥ 94.9 µM
- MIC [10]: ≥ 94.9 µM
Compound: CC[C@H](C)[C@H](NC(=O)[C@H](CCSC)NC(=O)[C@H](CCCCN)NC(=O)CNC(=O)[C@H](C)NC(=O)[C@H](Cc1cnc[nH]1)NC(=O)[C@H](Cc1ccccc1)NC(=O)[C@H](CC(C)C)NC(C)=O)C(=O)N[C@@H](Cc1cnc[nH]1)C(N)=O [LFHAGKMIH]

- MIC [11]: 6.15 µM (≈ 9.99 µg/mL)
- MIC [12]: 6.25 µM (≈ 10.2 µg/mL)
- MIC [13]: 3.08 µM (≈ 5 µg/mL)
- MIC [14]: 6.15 µM (≈ 9.99 µg/mL)
- MIC [15]: 0.615 µM (≈ 0.999 µg/mL)
- MIC [16]: 1.54 µM (≈ 2.5 µg/mL)
- MIC [17]: 3.08 µM (≈ 5 µg/mL)
Compound: CC[C@H](C)[C@H](NC(=O)[C@H](CCCN=C(N)N)NC(=O)[C@@H](N)CC(C)C)C(=O)N[C@@H](CC(C)C)C(=O)N[C@@H](CCCN=C(N)N)C(=O)N[C@@H](CCCN=C(N)N)C(=O)N[C@@H](CC(C)C)C(=O)N[C@@H](CC(C)C)C(=O)N[C@@H](CCCN=C(N)N)C(=O)N[C@@H](CCCN=C(N)N)C(=O)N[C@@H](CC(C)C)C(=O)N[C@@H](Cc1ccccc1)C(N)=O [LRILRRLLRRLF]

- MIC [21]: 23 µM and 11.9 µM
- MIC [4]: 23 µM (≈ 31 µg/mL)
- MIC [22]: 23 µM (≈ 31 µg/mL)
- MIC [23]: 186 µM (≈ 251 µg/mL)
- MIC [6]: 23 µM and 46.8 µM
Compound: CC[C@H](C)[C@H](NC(=O)[C@H](CCCCN)NC(=O)[C@@H](NC(=O)[C@H](CCCN=C(N)N)NC(=O)[C@H](CCCN=C(N)N)NC(=O)[C@@H](N)CCCN=C(N)N)[C@@H](C)CC)C(=O)N[C@@H](CCCN=C(N)N)C(=O)N[C@@H](Cc1c[nH]c2ccccc12)C(=O)N[C@@H](Cc1ccc(O)cc1)C(N)=O [RRRIKIRWY]

- MIC (Candida albicans 38U): 26.1 µM (≈ 32 µg/mL)
- MIC [26]: ≥ 209 µM
- MIC (Candida albicans 01U): ≥ 52.3 µM
- MIC (Candida parapsilosis): ≥ 209 µM
- MIC [27]: ≥ 105 µM
- MIC (Trichophyton rubrum): 26.1 µM (≈ 32 µg/mL)
- MIC [28]: ≥ 209 µM
Compound: CC[C@H](C)[C@H](NC(=O)[C@H](CC(C)C)NC(=O)[C@H](CCC(=O)O)NC(=O)[C@H](CO)NC(=O)[C@H](CCCN=C(N)N)NC(=O)[C@@H](N)CO)C(=O)N[C@H](C(=O)N[C@@H](Cc1cnc[nH]1)C(=O)N[C@@H](CCC(N)=O)C(=O)N[C@@H](CCCN=C(N)N)C(N)=O)C(C)C [SRSELIVHQR]
